Measurements: patent US4022912A, “Use of 1-decarboxy-1-hydroxymethyl-PGE1 in therapeutic bronchodilation” (priority 1976, dated 1977)
Read-outs that look alike come from different tables or passages of the source.

How the values were obtained:
bronchodilation = details: inhalational administration to guinea pigs; cited from earlier work
[1] = tested on: Convulsions Induced by Inhaled Histamine; test: Delay of convulsions induced by inhaled histamine in conscious guinea pigs; assay type: in vivo, guinea pig
Method: Conscious male albino guinea pigs (Dunkin-Hartley strain) weighing 200-300 g were placed (singly) in a 5-liter transparent chamber for 1 minute and subjected to an aerosol of vehicle or test drug in solution, plus histamine (1% w/v).
The time from the beginning of the administration of the aerosol to the start of the first convulsion (when the guinea pig is immediately removed from the aerosol) is the pre-convulsion time. Twenty-four hours later the general procedure was repeated. Guinea pigs treated with the test drug on the first day were treated with vehicle on the second day and vice versa in a cross-over design. Maximum time allowed in the aerosol was 10 minutes. An ultrasonic humidifier was used to produce the aerosol.

[2] = tested on: Histamine-Induced Bronchoconstriction; test: Inhibition of histamine-induced bronchoconstriction in the anesthetized guinea pig in vivo by intravenous administration; details: Cavia porcellus, iv, i.v. 15 seconds prior to histamine
Method: (§1) Male albino guinea pigs (400-600 g; Dunkin-Hartley Strain) were anesthetized with pentobarbitone sodium (60 mg/kg intraperitoneally).
(§2) Trachea, external jugular vein and carotid artery were cannulated for recording ventilation, intravenous administration of drugs, and blood pressure respectively. The animals were artificially respired throughout the experiment. Electrocardiograms were also recorded. Respiratory flow was charted on a twin-channel recorder fixed to an SE differential pressure transducer.
(§3) Histamine was administered intravenously at 5 minute intervals. The test drug was administered intravenously 15 seconds prior to histamine in order to inhibit bronchoconstriction.

tracheal smooth muscle [3] = details: isolated from a guinea pig; cited from earlier work
bronchial smooth muscle = details: by inhalation or intravenously; cited from earlier work
[4] = tested on: Guinea Pig Tracheal Tissue; test: Relaxation of guinea pig tracheal tissue in vitro; assay type: cell-based; details: Table B, standard error in parentheses
Method: Male guinea pigs weighing 200-500 g were killed by a blow on the head. A 20 mm length of trachea was dissected from each of the animals, transferred to a petri dish containing Krebs' solution aerated with 95% O2 and 5% CO2 at 37° C., and cut longitudinally opposite the tracheal muscle. The tissue was then cut transversely three quarters of the distance across; a second cut in the opposite direction again three quarters of the distance across the tissue was made, and the procedure was continued for the whole tissue. The ends of the trachea were pulled to form a zig-zag shaped strip. The tracheal strips used in the experiment were approximately 30 mm when extended under 0.25-0.5 g load in a tissue bath. Cotton thread was tied to one end of the tissues, and linen thread to the other. The tissues were attached via the linen thread to a glass hook in a 5 ml isolated tissue bath containing Krebs' solution at 37° C. aerated with a mixture of 95% O2 and 5% CO2. The opposite ends were attached via cotton thread to an isotonic transducer. The load on the transducer lever was small, usually 0.3 g, with a range of 0.25-0.5 g; and the magnification high, 80-fold using an appropriate twin-channel pen recorder. A minimum of thirty minutes was allowed before applying a drug to the tissues. Drugs were then applied (in volumes of 0.5 ml) at thirty minute intervals, being in contact with the tissue for five minutes followed by an overflow washout time of twenty seconds.

tracheal smooth muscle [5] = details: isolated from a human; cited from earlier work
[6] = tested on: Histamine-Induced Bronchoconstriction; test: Inhibition of intravenous histamine-induced bronchoconstriction in the anesthetized guinea pig by inhalational administration; assay type: in vivo; details: 0.001 μg/ml in stock solution aerosolized; inhalation
Method: as §1, §2, §3
Details of the procedure of this example are the same as those in preceding Example 2 with the exception that the test compounds were delivered in aerosol form into the trachea of the test aminals.

CCCCC[C@H](O)/C=C/[C@H]1[C@H](O)CC(=O)[C@@H]1CCCCCCC(=O)O [PGE1, 11α,15α-dihydroxy-9-oxo-13-trans-prostenoic acid]
bronchodilation compared with isoprenaline (bronchodilation): superior to that induced by isoprenaline
Prolongation of Preconvulsion Time ([1]; Expt. 1B, 0.50 μg/ml stock solution aerosolized, P <0.1): 77 s
Prolongation of Preconvulsion Time ([1]; Expt. 1B, 2.50 μg/ml stock solution aerosolized, P <0.001): 225 s
Prolongation of Preconvulsion Time ([1]; Expt. 1B, 5.00 μg/ml stock solution aerosolized, N.S. at P ≤ 0.05): 139 s
Prolongation of Preconvulsion Time ([1]; Expt. 1B, 10.00 μg/ml stock solution aerosolized, N.S. at P ≤ 0.05): 267 s
Prolongation of Preconvulsion Time ([1]; Expt. 2B, 0.10 μg/ml stock solution aerosolized, N.S. at P ≤ 0.05): 495 s
Prolongation of Preconvulsion Time ([1]; Expt. 2B, 0.50 μg/ml stock solution aerosolized, P <0.01): 274 s
Prolongation of Preconvulsion Time ([1]; Expt. 2B, 1.00 μg/ml stock solution aerosolized, P <0.01): 294 s
Prolongation of Preconvulsion Time ([1]; Expt. 2B, 5.00 μg/ml stock solution aerosolized, N.S. at P ≤ 0.05): 664 s
ED50 ([2]; Experiment No. 1, read-out: Dose I.V. inhibiting bronchoconstriction by 50% (ID50)): 0.603 µg/kg
ED50 ([2]; Experiment No. 2, read-out: Dose I.V. inhibiting bronchoconstriction by 50% (ID50)): 0.966 µg/kg
ED50 ([2]; Experiment No. 3, read-out: Dose I.V. inhibiting bronchoconstriction by 50% (ID50)): 0.263 µg/kg
ED50 ([2]; Experiment No. 4, read-out: Dose I.V. inhibiting bronchoconstriction by 50% (ID50)): 0.864 µg/kg
ED50 ([2]; Experiment No. 5, read-out: Dose I.V. inhibiting bronchoconstriction by 50% (ID50)): 0.202 µg/kg
ED50 ([2]; mean of experiments 1-5, read-out: Dose I.V. inhibiting bronchoconstriction by 50% (ID50), Mean): 0.579 µg/kg
relaxation of isolated tracheal smooth muscle (tracheal smooth muscle [3]): relaxes tracheal smooth muscle
relaxation of bronchial smooth muscle in vivo (bronchial smooth muscle): relaxes bronchial smooth muscle in vivo
Relaxation (×80) (± S.E.) ([4]; 0.001 μg/ml): 0 mm
Relaxation (×80) (± S.E.) ([4]; 0.010 μg/ml): 24 (1) mm
Relaxation (×80) (± S.E.) ([4]; 0.100 μg/ml): 46 (19) mm
Relaxation (×80) (± S.E.) ([4]; 1.000 μg/ml): 75 (17) mm
Relaxation (×80) (± S.E.) ([4]; 10.000 μg/ml): 75 (65) mm
relaxation of isolated tracheal smooth muscle (tracheal smooth muscle [5]): relaxes tracheal smooth muscle
Precent Inhibition of Histamine-Induced Bronchoconstriction [6]: 6%
